Experimental data as given in patent publication US20240381872A1, “SUBSTITUTED 2,3-DIHYDRO[1,3]THIAZOLO[4,5-B]PYRIDINES, SALTS THEREOF AND THEIR USE AS HERBICIDALLY ACTIVE SUBSTANCES” (BAYER AKTIENGESELLSCHAFT, priority 2021, published 2024).

What was measured:
Assay type in all cases: in vivo
[1] = test system: Matricaria inodora (MATIN); test: Herbicidal pre-emergence action, section A (Table A6); settings: visual grading after ca. 3 weeks vs untreated controls; for pest or weed control at 320 g/ha: Tripleurospermum inodorum, pre-emergence, 504 h, read-out: pre-emergence activity against MATIN in %
Summary of the method: (§1)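 Visual scoring at approximately 3 weeks, relative to untreated pots, gave percent effect after compounds in WP or EC form were sprayed onto covering soil of sown seeds (sandy loam) in water with 0.5% additive at 600 l/ha, then kept in greenhouse.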

Setaria viridis (SETVI) = test: Herbicidal pre-emergence action, section A (Table A8)
Summary of the method: as §1

Stellaria media (STEME) [2] = test: Herbicidal pre-emergence action, section A (Table A9); settings: for pest or weed control at 320 g/ha: Stellaria media, 504 h, read-out: pre-emergence activity against STEME in %
Summary of the method: as §1

[3] = test system: Digitaria sanguinalis (DIGSA); test: Herbicidal pre-emergence action, section A (Table A12); settings: application rate 320 g/ha; for pest or weed control at 320 g/ha: Digitaria sanguinalis, 504 h, read-out: pre-emergence activity against DIGSA in %
Summary of the method: as §1

Lolium rigidum (LOLRI) = test: Herbicidal post-emergence action, section B (Table B5); settings: visual rating about 3 weeks after treatment vs untreated controls; for pest or weed control at 1280 g/ha: Lolium rigidum, post-emergence, 504 h, read-out: post-emergence activity against LOLRI in %
Summary of the method: (§2)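 Visual percent control about 3 weeks post-spray, relative to untreated plants. Application was to foliage at the one-leaf stage (2 to 3 weeks after sowing in sandy loam), using WP or EC formulations in water with 0.5% additive at 600 liters per hectare.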

Stellaria media (STEME) [4] = test: Herbicidal post-emergence action, section B (Table B9); settings: visual rating about 3 weeks after treatment vs untreated controls
Summary of the method: as §2

Veronica persica (VERPE) [5] = test: Herbicidal post-emergence action, section B (Table B10); settings: visual rating about 3 weeks after treatment vs untreated controls
Summary of the method: as §2

[6] = test system: Abutilon theophrasti (ABUTH); test: Herbicidal post-emergence action, section E (Table E1); settings: assessed visually after ca. 3 weeks
Description: (§3) Seeds of mono- and dicotyledonous weed plants and crop plants were sown, in plastic or organic planting pots, in sandy loam, covered with soil and grown in a greenhouse under controlled growth conditions. 2 to 3 weeks after sowing, the test plants were sprayed in the single-leaf stage. The compounds according to the invention, formulated in form of wettable powders (WP) or as emulsifiable concentrates (EC), were sprayed onto the green plant parts as aqueous suspension or emulsion, with the addition of 0.5% of an additive, at an application rate of 600 l of water/ha (converted). The test plants were placed in the greenhouse for ca. 3 weeks under optimum growth conditions, and then the effect of the preparations was assessed visually in comparison with untreated controls (herbicidal effect in percent (%): 100% effect=plants have died off, 0% effect=as control plants).

[7] = test system: Alopecurus myosuroides (ALOMY); test: Herbicidal post-emergence action, section E (Table E2); settings: application rate 320 g/ha, assessed visually after ca. 3 weeks; for pest or weed control at 320 g/ha: Alopecurus myosuroides, post-emergence, 504 h, read-out: post-emergence activity against ALOMY in %
Summary of the method: (§4)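 Visual % herbicidal effect vs untreated controls (100% = plants died off, 0% = as controls), scored ca. 3 wk after post-emergence spray. Greenhouse plants in sandy loam, single-leaf stage; WP/EC in aqueous spray, 0.5% additive, 600 l water/ha.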

[8] = test system: Amaranthus retroflexus (AMARE); test: Herbicidal post-emergence action, section E (Table E3); settings: application rate 320 g/ha, assessed visually after ca. 3 weeks; for pest or weed control at 320 g/ha: Amaranthus retroflexus, post-emergence, 504 h, read-out: post-emergence activity against AMARE in %
Description: as §3

[9] = test system: Polygonum convolvulus (POLCO); test: Herbicidal post-emergence action, section E (Table E7); settings: visual assessment ca. 3 weeks after spraying; for pest or weed control at 80 g/ha: Fallopia convolvulus, 504 h, read-out: post-emergence activity against POLCO in %
Summary of the method: as §4

Veronica persica (VERPE) [10] = test: Herbicidal post-emergence action, section E (Table E9); settings: visual assessment ca. 3 weeks after spraying
Summary of the method: as §4

Zea mays (ZEAMX) = test: Post-emergence effects on crop plants, section F (Table F1); settings: for post-emergence activity against ZEAMX in %: crop plant damage
Summary of the method: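 Visual % damage versus untreated controls (100% = plants died, 0% = as control), assessed ca. 3 weeks after post-emergence spraying. Greenhouse plants in sandy loam were treated at the single-leaf stage with WP/EC formulations, 0.5% additive, 600 l water/ha, at 320 g/ha or below.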

[11] = test system: Abutilon theophrasti (ABUTH); test: Herbicidal post-emergence action, section B (Table B1); settings: rated visually after about 3 weeks
Summary of the method: as §2

SMILES | pest or weed control at 320 g/ha ([1]; application rate 320 g/ha) | pest or weed control at 320 g/ha (Stellaria media (STEME) [2]; application rate 320 g/ha) | pest or weed control at 320 g/ha [3] | pest or weed control at 1280 g/ha (Lolium rigidum (LOLRI); application rate 1280 g/ha) | pest or weed control at 320 g/ha [7] | pest or weed control at 320 g/ha [8] | pest or weed control at 80 g/ha ([9]; application rate 80 g/ha) | pre-emergence activity against MATIN in % ([1]; application rate 320 g/ha) | pre-emergence activity against SETVI in % (Setaria viridis (SETVI); application rate 320 g/ha) | pre-emergence activity against STEME in % (Stellaria media (STEME) [2]; application rate 320 g/ha) | pre-emergence activity against DIGSA in % [3] | post-emergence activity against ABUTH in % ([11]; application rate 320 g/ha) | post-emergence activity against STEME in % (Stellaria media (STEME) [4]; application rate 320 g/ha) | post-emergence activity against VERPE in % (Veronica persica (VERPE) [5]; application rate 320 g/ha) | post-emergence activity against ALOMY in % [7] | post-emergence activity against AMARE in % [8] | post-emergence activity against ZEAMX in % (Zea mays (ZEAMX); application rate 320 g/ha) | post-emergence activity against ABUTH in % ([6]; application rate 320 g/ha) | post-emergence activity against POLCO in % ([9]; application rate 320 g/ha) | post-emergence activity against VERPE in % (Veronica persica (VERPE) [10]; application rate 320 g/ha) | further results
CCOCCS(=O)(=O)N1C[S+]([O-])c2cc(C)c(-c3ccccc3F)nc21 (centres unmarked) [Example I-127] | 100% | 90% | 100% | 90% | 90% | 90% | 90% |  |  |  |  |  |  |  |  |  |  |  |  |  | pest or weed control at 320 g/ha (Setaria viridis (SETVI); Setaria viridis, 504 h, application rate 320 g/ha, read-out: pre-emergence activity against SETVI in %): 100%; pest or weed control at 1280 g/ha (Stellaria media (STEME) [4]; Stellaria media, post-emergence, 504 h, application rate 1280 g/ha, read-out: post-emergence activity against STEME in %): 90%; pest or weed control at 1280 g/ha (Veronica persica (VERPE) [5]; Veronica persica, post-emergence, 504 h, application rate 1280 g/ha, read-out: post-emergence activity against VERPE in %): 90%; pest or weed control at 80 g/ha ([6]; Abutilon theophrasti, post-emergence, 504 h, application rate 80 g/ha, read-out: post-emergence activity against ABUTH in %): 80%; pest or weed control at 320 g/ha (Veronica persica (VERPE) [10]; Veronica persica, 504 h, application rate 320 g/ha, read-out: post-emergence activity against VERPE in %): 90%; percent crop plant damage (phytotoxicity) on Zea mays, post-emergence at 80 g/ha (Zea mays (ZEAMX); Zea mays, 504 h, application rate 80 g/ha, read-out: post-emergence activity against ZEAMX in %): 20%
COCC1(C(=O)N2CSc3cc(C)c(-c4ccccc4F)nc32)CC(Cl)=NO1 (centres unmarked) [Example I-128] |  |  |  |  |  |  |  | 100% | 100% | 90% | 100% | 90% | 90% | 90% | 90% | 90% | 0% |  |  |  | post-emergence activity against LOLRI in % (Lolium rigidum (LOLRI); application rate 320 g/ha): 90%; post-emergence activity against ABUTH in % ([6]; application rate 80 g/ha): 80%; post-emergence activity against POLCO in % ([9]; application rate 80 g/ha): 90%; post-emergence activity against VERPE in % (Veronica persica (VERPE) [10]; application rate 80 g/ha): 80%
CCS(=O)(=O)N1CSc2cc(C)c(-c3ccccc3F)nc21 [Example I-060, 3-(ethylsulfonyl)-5-(2-fluorophenyl)-6-methyl-2,3-dihydro[1,3]thiazolo[4,5-b]pyridine] | 90% | 90% | 100% | 90% | 90% | 90% | 90% |  |  |  |  |  |  |  |  |  |  |  |  |  | pest or weed control at 1280 g/ha (Setaria viridis (SETVI); Setaria viridis, 504 h, application rate 1280 g/ha, read-out: pre-emergence activity against SETVI in %): 100%; pest or weed control at 1280 g/ha ([11]; Abutilon theophrasti, 504 h, application rate 1280 g/ha, read-out: post-emergence activity against ABUTH in %): 90%; pest or weed control at 320 g/ha (Stellaria media (STEME) [4]; Stellaria media, post-emergence, 504 h, application rate 320 g/ha, read-out: post-emergence activity against STEME in %): 90%; pest or weed control at 320 g/ha (Veronica persica (VERPE) [5]; Veronica persica, post-emergence, 504 h, application rate 320 g/ha, read-out: post-emergence activity against VERPE in %): 90%; pest or weed control at 320 g/ha ([6]; Abutilon theophrasti, post-emergence, 504 h, application rate 320 g/ha, read-out: post-emergence activity against ABUTH in %): 80%; pest or weed control at 80 g/ha (Veronica persica (VERPE) [10]; Veronica persica, 504 h, application rate 80 g/ha, read-out: post-emergence activity against VERPE in %): 80%; percent crop plant damage (phytotoxicity) on Zea mays, post-emergence at 320 g/ha (Zea mays (ZEAMX); Zea mays, 504 h, application rate 320 g/ha, read-out: post-emergence activity against ZEAMX in %): 0%
COC(=O)CCC(=O)N1CSc2cc(C)c(-c3ccccc3F)nc21 [Example I-010] |  |  |  |  |  |  |  | 90% |  | 100% | 100% | 90% | 90% | 90% | 80% | 80% |  | 80% | 90% | 80% | pre-emergence activity against SETVI in % (Setaria viridis (SETVI); application rate 1280 g/ha): 100%; post-emergence activity against LOLRI in % (Lolium rigidum (LOLRI); application rate 1280 g/ha): 90%
CC1(C(=O)N2CSc3cc(Br)c(-c4ccccc4)nc32)CC(Cl)=NO1 (centres unmarked) [Example I-139] |  |  |  |  |  |  |  |  | 100% | 90% | 100% |  |  |  | 80% | 90% | 0% | 90% | 90% | 80% | pre-emergence activity against MATIN in % ([1]; application rate 1280 g/ha): 90%; post-emergence activity against ABUTH in % ([11]; application rate 1280 g/ha): 90%; post-emergence activity against STEME in % (Stellaria media (STEME) [4]; application rate 1280 g/ha): 90%; post-emergence activity against VERPE in % (Veronica persica (VERPE) [5]; application rate 1280 g/ha): 90%
Cc1ccccc1-c1nc2c(cc1C)SCN2C(=O)C1(C)CC(Cl)=NO1 (centres unmarked) [Example I-137] |  |  |  |  |  |  |  | 90% | 100% |  | 100% |  |  |  | 80% | 80% |  | 80% | 80% | 80% | pre-emergence activity against STEME in % (Stellaria media (STEME) [2]; application rate 1280 g/ha): 100%; post-emergence activity against ABUTH in % ([11]; application rate 1280 g/ha): 90%; post-emergence activity against STEME in % (Stellaria media (STEME) [4]; application rate 1280 g/ha): 90%; post-emergence activity against VERPE in % (Veronica persica (VERPE) [5]; application rate 1280 g/ha): 90%; post-emergence activity against ZEAMX in % (Zea mays (ZEAMX); application rate 80 g/ha): 0%
